Measurements from publication PMC7044277 (Nature Communications, 2020).
Several values for one entry are separate records, joined by “and”; a condition that tells them apart may be missing. Equal values may be shown once.

Assays:
[1] = target: DRD2 (D2 long receptor) wild-type (Homo sapiens, UniProt P14416); assay: Radioligand competition binding, [3H]-N-methylspiperone, HEK293T membranes; settings: DRD2; [3H]-methylspiperone (0.8-1.0 nM); read-out: Ki
DRD3 wild-type = DRD3 wild-type (Homo sapiens, UniProt P35462); assay: Radioligand competition binding, [3H]-N-methylspiperone; settings: DRD3 wild-type; read-out: pKi ± SEM (converted)
[2] = target: T1, DRD4 (D4.4 variant) wild-type (Homo sapiens, UniProt P21917); assay: as above; settings: DRD4; [3H]-methylspiperone (0.8-1.0 nM); read-out: Ki
T1 sequence (P21917 1-419): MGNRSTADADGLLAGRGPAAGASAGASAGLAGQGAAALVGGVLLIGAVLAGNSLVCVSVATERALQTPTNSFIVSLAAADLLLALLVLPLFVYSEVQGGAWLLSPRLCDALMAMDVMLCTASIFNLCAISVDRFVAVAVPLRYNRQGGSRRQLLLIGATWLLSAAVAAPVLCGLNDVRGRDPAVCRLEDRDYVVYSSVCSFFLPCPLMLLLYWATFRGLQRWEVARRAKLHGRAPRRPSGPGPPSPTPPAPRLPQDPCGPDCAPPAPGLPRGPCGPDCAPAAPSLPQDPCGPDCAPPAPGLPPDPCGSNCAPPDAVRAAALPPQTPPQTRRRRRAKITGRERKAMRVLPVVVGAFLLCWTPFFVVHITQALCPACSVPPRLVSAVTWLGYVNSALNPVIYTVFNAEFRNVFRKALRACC

DRD3 F1063.28A = DRD3 F1063.28A (Homo sapiens, UniProt P35462, F106A); assay: biochemical; format: binding
DRD4 (D4.4 variant) = target: T2, DRD4 (D4.4 variant) (Homo sapiens, UniProt P21917); assay: β-arrestin2 recruitment (Tango); format: cell-based; settings: for Fig_S10c concentration-response source data, compound alone (replicates): agonist mode
T2 sequence (P21917 1-419): T1 sequence (P21917 1-419)

DRD2 F1103.28L = target: T3, DRD2 F1103.28L (Homo sapiens, UniProt P14416, F110L); assay: β-arrestin2 recruitment (Tango), mutant; format: cell-based
T3 construct: expressed in transfected cells; host or cells: HEK293T (ATCC CRL-11268)

5HT1E = 5HT1E (Homo sapiens, UniProt P28566); assay: β-arrestin2 recruitment (Tango); format: cell-based; settings: Fig_S10i
5HT1F = target: T4, 5HT1F (Homo sapiens, UniProt P30939); assay: β-arrestin2 recruitment (Tango); format: cell-based; settings: Fig_S10j
T4 construct: expressed in transfected cells; host or cells: HTLA cells expressing TEV-fused β-arrestin2
T4 sequence (P30939 1-366): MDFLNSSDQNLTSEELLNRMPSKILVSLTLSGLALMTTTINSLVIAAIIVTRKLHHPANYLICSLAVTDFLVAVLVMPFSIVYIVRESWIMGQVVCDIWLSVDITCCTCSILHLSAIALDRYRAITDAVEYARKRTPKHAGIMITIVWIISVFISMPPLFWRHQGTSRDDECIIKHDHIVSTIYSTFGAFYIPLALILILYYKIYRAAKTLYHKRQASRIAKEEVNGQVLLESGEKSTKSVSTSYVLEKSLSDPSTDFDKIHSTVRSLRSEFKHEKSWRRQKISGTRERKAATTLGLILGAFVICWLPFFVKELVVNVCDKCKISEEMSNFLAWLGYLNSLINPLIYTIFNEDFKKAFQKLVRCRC

Chain of 5HT1E (P28566 whole entry): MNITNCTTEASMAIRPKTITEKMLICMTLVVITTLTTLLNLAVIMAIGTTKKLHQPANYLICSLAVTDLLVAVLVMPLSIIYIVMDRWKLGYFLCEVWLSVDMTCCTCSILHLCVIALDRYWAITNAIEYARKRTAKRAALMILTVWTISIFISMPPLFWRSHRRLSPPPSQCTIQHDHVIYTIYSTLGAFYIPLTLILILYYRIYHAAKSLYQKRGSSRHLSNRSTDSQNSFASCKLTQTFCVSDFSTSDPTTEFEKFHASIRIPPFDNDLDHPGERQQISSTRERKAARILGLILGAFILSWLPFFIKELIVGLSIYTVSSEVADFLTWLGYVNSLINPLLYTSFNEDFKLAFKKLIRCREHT
T3 sequence (P14416 whole entry F110L): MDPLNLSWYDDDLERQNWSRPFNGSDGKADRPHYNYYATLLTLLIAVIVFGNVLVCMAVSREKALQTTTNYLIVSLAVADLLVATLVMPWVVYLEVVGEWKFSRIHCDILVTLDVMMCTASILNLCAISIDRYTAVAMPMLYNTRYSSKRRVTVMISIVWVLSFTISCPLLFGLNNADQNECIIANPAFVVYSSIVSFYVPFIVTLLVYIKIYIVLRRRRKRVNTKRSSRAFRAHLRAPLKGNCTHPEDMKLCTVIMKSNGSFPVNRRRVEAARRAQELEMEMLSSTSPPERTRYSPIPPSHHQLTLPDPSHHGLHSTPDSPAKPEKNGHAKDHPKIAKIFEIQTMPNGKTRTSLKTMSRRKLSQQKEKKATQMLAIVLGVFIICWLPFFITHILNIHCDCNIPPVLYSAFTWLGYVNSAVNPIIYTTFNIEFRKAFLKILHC
Chain of DRD3 wild-type (P35462 whole entry): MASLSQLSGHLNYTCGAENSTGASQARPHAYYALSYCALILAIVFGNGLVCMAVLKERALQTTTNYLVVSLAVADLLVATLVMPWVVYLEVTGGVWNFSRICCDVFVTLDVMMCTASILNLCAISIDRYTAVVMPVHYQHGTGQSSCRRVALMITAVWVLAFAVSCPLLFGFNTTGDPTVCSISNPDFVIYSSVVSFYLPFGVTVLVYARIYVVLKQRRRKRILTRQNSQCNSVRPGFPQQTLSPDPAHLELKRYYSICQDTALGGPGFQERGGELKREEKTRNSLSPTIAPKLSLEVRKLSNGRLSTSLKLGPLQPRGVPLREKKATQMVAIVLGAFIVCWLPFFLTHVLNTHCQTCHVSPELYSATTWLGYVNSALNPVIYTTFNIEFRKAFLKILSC
Chain of DRD3 F1063.28A (P35462 whole entry F106A): as the sequence (P35462 whole entry) above, with F106A counted along it
Chain of DRD2 (D2 long receptor) wild-type (P14416 whole entry): as the sequence (P14416 whole entry F110L) above, with L110F counted along it

CCOc1cccc2cc([C@@H](C)NCC3(O)CCCCC3)oc12 [O4RE6]
Ki [1]: 690 nM | Ki (DRD3 wild-type): 115 nM | Ki [2]: > 10000 nM | Ki (DRD3 F1063.28A): 1050 nM | EC50 (DRD4 (D4.4 variant); DRD4, Tango, read-out: EC50 ± SEM): > 10000 nM | β-arrestin2 recruitment response at DRD4 (source data, replicate values) (DRD4 (D4.4 variant); Log[Drug] -5): 6.217 and 2.763 and 2.001 and 1.287 and 1.775 and 4.058 and 4.003 and 0.06427 and 0.2106 | Fig_S10c concentration-response source data, compound alone (replicates) (DRD4 (D4.4 variant); Log[Drug] -5): 5.394 and 8.31 and 11.4353 and 9.275 and 2.582 and 4.074 and 8.729 and 7.933 and 14.0378 | β-arrestin2 recruitment response at DRD4 (source data, replicate values) (DRD4 (D4.4 variant); Log[Drug] -5.52): 2.6039 and -1.106 and -1.946 and -0.4701 and 1.404 and 2.39 and 0.8979 and 0.0552 and 0.08381 | Fig_S10c concentration-response source data, compound alone (replicates) (DRD4 (D4.4 variant); Log[Drug] -5.52): 1.202 and 2.837 and 2.321 and 1.635 and 2.366 and 3.787 and 1.627 and 3.207 and 0.6688 | β-arrestin2 recruitment response at DRD4 (source data, replicate values) (DRD4 (D4.4 variant); Log[Drug] -6): 3.584 and -1.188 and -0.584 and -0.6588 and 0.8796 and 1.83 and 0.7762 and 0.03516 and 0.171 | Fig_S10c concentration-response source data, compound alone (replicates) (DRD4 (D4.4 variant); Log[Drug] -6): 2.086 and 2.7849 and 3.425 and -0.09437 and 0.02849 and 3.5238 and 0.3966 and 3.288 and 1.462 | β-arrestin2 recruitment response at DRD4 (source data, replicate values) (DRD4 (D4.4 variant); Log[Drug] -6.52): 1.007 and 4.325 and 1.323 and -0.8974 and 1.527 and -0.05366 and -0.1047 and 0.03541 and 0.08444 | Fig_S10c concentration-response source data, compound alone (replicates) (DRD4 (D4.4 variant); Log[Drug] -6.52): 1.505 and 1.478 and 5.593 and -1.936 and -0.8155 and 0.5983 and 2.508 and 1.037 and -0.4712 | β-arrestin2 recruitment response at DRD4 (source data, replicate values) (DRD4 (D4.4 variant); Log[Drug] -7): 1.079 and -1.731 and -1.221 and -1.369 and 0.6898 and 0.678 and 1.948 and 0.1059 and 0.1355 | Fig_S10c concentration-response source data, compound alone (replicates) (DRD4 (D4.4 variant); Log[Drug] -7): 2.288 and 4.238 and 0.7634 and -1.02 and 3.3404 and -2.026 and 1.575 and 0.945 and -0.6741 | β-arrestin2 recruitment response at DRD4 (source data, replicate values) (DRD4 (D4.4 variant); Log[Drug] -7.52): 0.371 and -1.716 and -1.784 and -0.5805 and -0.6243 and 1.534 and -0.4267 and 0.02533 and 0.04436 | β-arrestin2 recruitment response at DRD4 (source data, replicate values) (DRD4 (D4.4 variant); Log[Drug] -8): 0.8799 and -0.7087 and -1.711 and -1.318 and -0.195 and -0.3626 and 1.952 and 0.0707 and 0.1967 | β-arrestin2 recruitment response at DRD4 (source data, replicate values) (DRD4 (D4.4 variant); Log[Drug] -8.52): 1.656 and -1.517 and -1.8 and 0.5698 and 0.5353 and -0.6701 and 0.003927 and 0.031 and 0.0242 | β-arrestin2 recruitment response at DRD4 (source data, replicate values) (DRD4 (D4.4 variant); Log[Drug] -9): 0.08244 and -0.5912 and 1.416 and -2.021 and 1.101 and 0.6872 and 0.9463 and -0.03415 and 0.05621 | β-arrestin2 recruitment response at DRD4 (source data, replicate values) (DRD4 (D4.4 variant); Log[Drug] -10.52): 2.403 | β-arrestin2 recruitment response at DRD4 (source data, replicate values) (DRD4 (D4.4 variant); Log[Drug] -11): 4.161 and -1.784 and -1.43 and 0.349 and 0.8023 and -0.5301 and 2.686 and -0.07952 and -0.04373 | β-arrestin2 recruitment response at DRD4 (source data, replicate values) (DRD4 (D4.4 variant); Log[Drug] -11.52): 0.6452 and -1.9266 and -1.439 and -0.7995 and -0.6204 and 1.59 and -0.483 and -0.008444 and -0.04903 | EC50 (DRD2 F1103.28L): 215 nM | Emax (DRD2 F1103.28L; read-out: Emax relative to quinpirole response): 7.76% | β-arrestin2 recruitment response, agonist mode (single replicate values) (5HT1E; Log[Drug] -5.52): -0.8838 | β-arrestin2 recruitment response, agonist mode (single replicate values) (5HT1E; Log[Drug] -6): 5.169 and -3.421 and -7.045 and -2.335 and -9.923 and 2.004 and -14.6813 and -14.4526 and -10.0186 | β-arrestin2 recruitment response, agonist mode (single replicate values) (5HT1E; Log[Drug] -6.52): 5.136 and -8.797 and -1.582 and 6.94 and -5.772 and 9.5977 and -9.147 and -14.4969 and -14.6019 | β-arrestin2 recruitment response, agonist mode (single replicate values) (5HT1E; Log[Drug] -7): -9.403 and -3.356 and -7.031 and 6.361 and -8.019 and 5.611 and -6.317 and -9.482 and -17.1569 | β-arrestin2 recruitment response, agonist mode (single replicate values) (5HT1E; Log[Drug] -7.52): -7.7314 and -4.654 and -9.0776 and 5.71 and 2.776 and -4.782 and -16.2446 and -11.396 and -8.341 | β-arrestin2 recruitment response, agonist mode (single replicate values) (5HT1E; Log[Drug] -8): -0.303 and 2.682 and 0.8105 and -16.5035 and -1.474 and 1.2682 and -16.075 and -2.697 and -15.9171 | β-arrestin2 recruitment response, agonist mode (single replicate values) (5HT1E; Log[Drug] -8.52): -6.877 and -0.9842 and -10.6793 and 4.799 and 9.189 and -4.891 and 2.59 and -7.1 and -6.491 | β-arrestin2 recruitment response, agonist mode (single replicate values) (5HT1E; Log[Drug] -9): -3.28 and 6.173 and 0.4053 and -14.2337 and -0.6567 and 5.487 and -22.7397 and -14.6836 and -5.277 | β-arrestin2 recruitment response, agonist mode (single replicate values) (5HT1E; Log[Drug] -9.52): -0.2537 and -8.594 and -3.456 and -0.4529 and -8.792 and -9.322 and -17.3288 and -4.524 and -7.744 | β-arrestin2 recruitment response, agonist mode (single replicate values) (5HT1E; Log[Drug] -10): -3.52 and -2.38 and 3.183 and -31.9257 and 29.8123 and -9.337 and -10.0295 and -4.283 and -12.1769 | β-arrestin2 recruitment response, agonist mode (single replicate values) (5HT1E; Log[Drug] -10.52): 0.1347 and 0.5117 and -4.0638 and -13.472 and -7.0659 and -13.7571 and -9.427 and -7.368 and -17.0465 | β-arrestin2 recruitment response, agonist mode (single replicate values) (5HT1E; Log[Drug] -11): 7.882 and 2.36 and 5.579 and -8.103 and -1.831 and -9.017 and -8.127 and -1.8482 and -12.9803 | β-arrestin2 recruitment response, agonist mode (single replicate values) (5HT1F; Log[Drug] -8): -0.9904 and 0.5932 and 0.4069 and -0.749 and -2.5023 and -1.954 and -1.184 and -1.248 and -0.2773 | β-arrestin2 recruitment response, agonist mode (single replicate values) (5HT1F; Log[Drug] -8.52): 0.3187 and 0.8997 and 1.294 and 0.7694 and -1.144 and -0.1941 and 0.6567 and 0.7348 and -0.5451 | β-arrestin2 recruitment response, agonist mode (single replicate values) (5HT1F; Log[Drug] -9): 0.2574 and -0.174 and 0.01716 and -1.454 and -1.951 and -2.373 and 1.634 and -1.575 and -0.4734 | β-arrestin2 recruitment response, agonist mode (single replicate values) (5HT1F; Log[Drug] -9.52): -0.956 and -0.4682 and 0.01716 and 8.249 and -1.726 and -1.835 and -1.503 and -0.6631 and 0.5435 | β-arrestin2 recruitment response, agonist mode (single replicate values) (5HT1F; Log[Drug] -10): 2.1842 and 2.2749 and -0.3922 and 0.1736 and 1.58 and -1.964 and -1.621 and -1.4329 and 0.0271 | β-arrestin2 recruitment response, agonist mode (single replicate values) (5HT1F; Log[Drug] -10.52): 0.6104 and 0.6079 and -0.2672 and -0.6094 and -0.8784 and -1.423 and 0.2215 and -0.4766 and -0.1562 | β-arrestin2 recruitment response, agonist mode (single replicate values) (5HT1F; Log[Drug] -11): -0.2991 and -0.7746 and -0.956 and -0.1975 and -1.559 and -1.001 and -0.7953 and -1.428 and -1.442 | β-arrestin2 recruitment response, agonist mode (single replicate values) (5HT1F; Log[Drug] -11.52): 9.046 and 4.9 and 0.09315 and 0.6026 and -0.4766 and -1.413 and -2.451 and -1.372 and 1.5094
